Reference: ChEMBL document CHEMBL1201862, “PubChem BioAssay data set” (2004)
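In this assay, cells in 96-well plates receive the compound at five concentrations for 48 hours. Endpoints are linearly interpolated between the surrounding concentrations. GI50 = concentration required for 50% inhibition of growth.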 Activity calls are given as the source filed them. No stated cut-off is given here; in the data, active = GI50 up to about 1.1 µM and inactive = higher.

How the values were obtained:
Assay in all cases: NCI anticancer screen, dose series, 48 h
IGROV-1 = tested on: IGROV-1
HOP-92 = tested on: HOP-92
NCI-H522 = tested on: NCI-H522
ACHN = tested on: ACHN
HOP-62 = tested on: HOP-62
SF-295 = tested on: SF-295
OVCAR-3 = tested on: OVCAR-3
SK-OV-3 = tested on: SK-OV-3
CCRF-CEM = tested on: CCRF-CEM
OVCAR-8 = tested on: OVCAR-8
SNB-19 = tested on: SNB-19
COLO 205 = tested on: COLO 205
UACC-62 = tested on: UACC-62
TK-10 = tested on: TK-10
MCF7 = tested on: MCF7
786-0 = tested on: 786-0
HT-29 = tested on: HT-29
RPMI-8226 = tested on: RPMI-8226
SN12C = tested on: SN12C
U-251 = tested on: U-251

| SMILES | GI50 (IGROV-1) | GI50 (HOP-92) | GI50 (NCI-H522) | GI50 (ACHN) | GI50 (HOP-62) | GI50 (SF-295) | GI50 (OVCAR-3) | GI50 (SK-OV-3) | GI50 (CCRF-CEM) | GI50 (OVCAR-8) | GI50 (SNB-19) | GI50 (COLO 205) | GI50 (UACC-62) | GI50 (TK-10) | GI50 (MCF7) | GI50 (786-0) | GI50 (HT-29) | GI50 (RPMI-8226) | GI50 (SN12C) | GI50 (U-251) |
| --- | --- | --- | --- | --- | --- | --- | --- | --- | --- | --- | --- | --- | --- | --- | --- | --- | --- | --- | --- | --- |
| CN(C)CCOc1ccc2[nH]c(C(=O)N3CC(CCl)c4c3cc(N)c3ccccc43)cc2c1 (configuration not stated) | < 0.01 µM (active) | < 0.01 µM (active) | < 0.01 µM (active) | < 0.01 µM (active) | < 0.01 µM (active) | < 0.01 µM (active) | < 0.01 µM (active) | < 0.01 µM (active) | < 0.01 µM (active) | < 0.01 µM (active) | < 0.01 µM (active) | < 0.01 µM (active) | < 0.01 µM (active) | < 0.01 µM (active) | < 0.01 µM (active) | < 0.01 µM (active) | < 0.01 µM (active) | < 0.01 µM (active) | < 0.01 µM (active) | < 0.01 µM (active) |
| Cn1c(=O)c2c(nc(N/N=C3/SCC(=O)N3Cc3ccccc3)n2C)n(C)c1=O | 34.3 µM (inactive) | 5.9 µM (inactive) | 71.4 µM (inactive) | > 100 µM (inactive) | > 100 µM (inactive) | > 100 µM (inactive) | 20.9 µM (inactive) | 43.5 µM (inactive) | 47.9 µM (inactive) | > 100 µM (inactive) | > 100 µM (inactive) | 50.4 µM (inactive) | 64.4 µM (inactive) | > 100 µM (inactive) | 81.7 µM (inactive) | > 100 µM (inactive) | 48.4 µM (inactive) | 17.5 µM (inactive) | > 100 µM (inactive) | 54.6 µM (inactive) |
| Cc1c(Cl)nc(Cl)nc1Cl | 3.01 µM (inactive) | 2.12 µM (inactive) | 0.044 µM (active) | 0.421 µM (active) | 4.97 µM (inactive) | 5.7 µM (inactive) | 1.85 µM (inactive) | 3.91 µM (inactive) | 0.238 µM (active) | 2.48 µM (inactive) | 3.81 µM (inactive) | 0.307 µM (active) | 4 µM (inactive) | 3.51 µM (inactive) | 0.984 µM (active) | 1.48 µM (inactive) | 0.818 µM (active) | 2.38 µM (inactive) | 2.69 µM (inactive) | 1.77 µM (inactive) |
| COc1cc(/C=C/C(=O)Oc2ccc(NC(C)=O)cc2)ccc1C(=O)OCc1ccccc1 | 67.5 µM (inactive) | 74.3 µM (inactive) | > 85.9 µM (inactive) | > 73.8 µM (inactive) | 53.8 µM (inactive) | 40.6 µM (inactive) | > 100 µM (inactive) | 48.4 µM (inactive) | 64.3 µM (inactive) | > 88.9 µM (inactive) | 52.7 µM (inactive) | > 100 µM (inactive) | 69.2 µM (inactive) | > 95.9 µM (inactive) | > 86.5 µM (inactive) | 39.6 µM (inactive) | > 100 µM (inactive) | > 100 µM (inactive) | > 92.5 µM (inactive) | 41 µM (inactive) |
| O=C(O)Cc1cccc2c(=O)c3cccc([N+](=O)[O-])c3[nH]c12 | > 100 µM (inactive) | > 100 µM (inactive) | 63.2 µM (inactive) | > 100 µM (inactive) | 31.4 µM (inactive) | > 100 µM (inactive) | 99.8 µM (inactive) | > 100 µM (inactive) | > 100 µM (inactive) | > 100 µM (inactive) | 43.3 µM (inactive) | 20.7 µM (inactive) | 25 µM (inactive) | > 100 µM (inactive) | 80.9 µM (inactive) | > 100 µM (inactive) | > 100 µM (inactive) | 12.9 µM (inactive) | 99.1 µM (inactive) | 38.9 µM (inactive) |
| C/C(CC1C2CCCC1C2)=N\NC(N)=O (configuration not stated) | > 100 µM (inactive) | > 100 µM (inactive) | > 100 µM (inactive) | > 100 µM (inactive) | > 100 µM (inactive) | > 100 µM (inactive) | 7.24 µM (inactive) | > 100 µM (inactive) | > 100 µM (inactive) | > 100 µM (inactive) | > 100 µM (inactive) | > 100 µM (inactive) | > 100 µM (inactive) | > 100 µM (inactive) | > 100 µM (inactive) | > 100 µM (inactive) | > 100 µM (inactive) | > 100 µM (inactive) | > 100 µM (inactive) | > 100 µM (inactive) |
| CC1CCC2(CC1)NC1=C(CC(C)CC1)C1=C2CC(C)CC1 (configuration not stated) | 31.3 µM (inactive) | 18.3 µM (inactive) | 19.3 µM (inactive) | 23.3 µM (inactive) | – | 18.1 µM (inactive) | 17.6 µM (inactive) | 38.8 µM (inactive) | 18.1 µM (inactive) | 23 µM (inactive) | 23.5 µM (inactive) | 20.4 µM (inactive) | > 10 µM (inactive) | 26.5 µM (inactive) | 17.6 µM (inactive) | 19.5 µM (inactive) | 16.7 µM (inactive) | 23.3 µM (inactive) | – | 18.4 µM (inactive) |
| O=C(Cc1csc2[n+]1C(=O)/C(=C/c1ccc(Cl)cc1)S2)Nc1ccccc1 | 16.9 µM (inactive) | 26.6 µM (inactive) | 15.3 µM (inactive) | 15.4 µM (inactive) | 2.01 µM (inactive) | 17.5 µM (inactive) | 12.8 µM (inactive) | 19.4 µM (inactive) | 23.8 µM (inactive) | 40.7 µM (inactive) | 34.9 µM (inactive) | 14.9 µM (inactive) | 10 µM (inactive) | 31.6 µM (inactive) | 15.4 µM (inactive) | 25.1 µM (inactive) | 24.2 µM (inactive) | 23.4 µM (inactive) | 32.1 µM (inactive) | 16.2 µM (inactive) |
| Cc1c(CNc2ccc(C(=O)NC(CCCNC(=O)c3ccccc3C(=O)O)C(=O)O)cc2)cnc2nc(N)nc(N)c12 (configuration not stated) | 0.000518 µM (active) | 2.09 µM (inactive) | 0.00151 µM (active) | 0.000393 µM (active) | 0.387 µM (active) | 0.000593 µM (active) | 0.0168 µM (active) | 0.00644 µM (active) | 0.00057 µM (active) | 0.000324 µM (active) | 0.01 µM (active) | 0.00671 µM (active) | 0.000396 µM (active) | 1.79 µM (inactive) | 0.0007 µM (active) | < 0.0001 µM (active) | 0.001 µM (active) | 0.000834 µM (active) | 0.00466 µM (active) | 0.00358 µM (active) |
| CCOP(=O)(CCCC(O)CNc1nc(N)nc(Cl)c1/N=N/c1ccc(Cl)cc1)OCC (configuration not stated) | 11.9 µM (inactive) | 5.6 µM (inactive) | 5.69 µM (inactive) | 4.05 µM (inactive) | 9.89 µM (inactive) | 7.46 µM (inactive) | 5.73 µM (inactive) | 3.19 µM (inactive) | 3.21 µM (inactive) | 8.47 µM (inactive) | 10.6 µM (inactive) | 6.64 µM (inactive) | 5.13 µM (inactive) | 3.67 µM (inactive) | 11.9 µM (inactive) | 5.27 µM (inactive) | 9.73 µM (inactive) | 2.82 µM (inactive) | 5.15 µM (inactive) | 8.57 µM (inactive) |
| O=C(NCCNCCCNC(=O)c1cc(-c2ccccc2)nc2ccccc12)c1cccc(OCc2ccccc2)c1OCc1ccccc1 | 1.85 µM (inactive) | 1.53 µM (inactive) | 1.73 µM (inactive) | 1.73 µM (inactive) | 1.65 µM (inactive) | 1.64 µM (inactive) | 1.95 µM (inactive) | 1.71 µM (inactive) | 1.79 µM (inactive) | 1.71 µM (inactive) | 1.78 µM (inactive) | 1.69 µM (inactive) | 1.93 µM (inactive) | 1.77 µM (inactive) | 1.66 µM (inactive) | 1.71 µM (inactive) | 1.63 µM (inactive) | 2.48 µM (inactive) | 1.77 µM (inactive) | 1.94 µM (inactive) |
| CCC(=O)ONC(=O)Cn1ccc([N+](=O)[O-])n1 | > 100 µM (inactive) | > 100 µM (inactive) | > 100 µM (inactive) | > 100 µM (inactive) | > 100 µM (inactive) | > 100 µM (inactive) | > 100 µM (inactive) | > 100 µM (inactive) | > 100 µM (inactive) | > 100 µM (inactive) | > 100 µM (inactive) | > 100 µM (inactive) | > 100 µM (inactive) | > 100 µM (inactive) | > 100 µM (inactive) | > 100 µM (inactive) | > 100 µM (inactive) | > 100 µM (inactive) | > 100 µM (inactive) | – |
| CCCCCCCCCCCCCCCCOCC(O)CO (configuration not stated) | 16.3 µM (inactive) | 21 µM (inactive) | 16.8 µM (inactive) | 18.8 µM (inactive) | 19.6 µM (inactive) | 16.4 µM (inactive) | 20.7 µM (inactive) | 16.6 µM (inactive) | 11.1 µM (inactive) | 17.9 µM (inactive) | 24 µM (inactive) | 22.1 µM (inactive) | 17 µM (inactive) | 15.2 µM (inactive) | 22.2 µM (inactive) | 18.4 µM (inactive) | 17.3 µM (inactive) | 14.8 µM (inactive) | 19.2 µM (inactive) | 19 µM (inactive) |
| N=C(N)NS(=O)(=O)c1ccc(Nc2c3ccccc3nc3c(C(=O)NCCO)cccc23)cc1 | 0.141 µM (active) | 0.192 µM (active) | 0.158 µM (active) | 0.219 µM (active) | 0.186 µM (active) | 0.263 µM (active) | 0.142 µM (active) | 0.236 µM (active) | 0.416 µM (active) | 0.185 µM (active) | 0.221 µM (active) | 0.16 µM (active) | 0.167 µM (active) | 0.281 µM (active) | 0.0282 µM (active) | 0.191 µM (active) | 0.16 µM (active) | 0.162 µM (active) | 0.202 µM (active) | 0.184 µM (active) |
